Earlier results, collected in patent EP1870093A1, “Pharmaceutical combination comprising adenosine A1 receptor antagonists and radiocontrast media” (Solvay Pharmaceuticals GmbH, priority 2006, dated 2007).

System: radiocontrast media induced nephropathy
Conditions: Shammas 2001; Welch 2002; Huber 2002

Compound: Cn1c(=O)c2[nH]cnc2n(C)c1=O [Aminophylline, aminophylline]
- protection against radiocontrast media induced nephropathy: does not appear to add a protective role

Compound: Cn1c(=O)c2[nH]cnc2n(C)c1=O [theophylline]
- protection against radiocontrast media induced nephropathy: effective in preventing radiocontrast media induced nephropathy
